From ChEMBL document CHEMBL1201862, “PubChem BioAssay data set” (2004) come the findings set out here.

One assay has as its target Paired box protein Pax-8 (Homo sapiens, UniProt Q06710). The experiment in a line: PAX8 transcriptional activity inhibition in RMG-I – RMG-I cells, luciferase, cherry-pick, dose response (AID 687027).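 Further: luciferase reporter driven by Pax8 target thyroperoxidase promoter measured by SteadyGlo luminescence.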 In kind it is functional, cell-based.
In another assay the target is Beta Lactamase (Pseudomonas aeruginosa, UniProt Q932Y6). The experiment in a line: BLA reporter interference, concentration series – BLA reporter cells, FRET fluorescence, artefact control for TLR9-MyD88 binding inhibitor project, dose response (AID 588341).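 Further: cell based assay in CHO-K1 cells stably expressing beta-lactamase.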 The assay is classed as cell-based.
The target of assay [1] is T1, Kappa-type opioid receptor (Homo sapiens, UniProt P41145). In kind it is functional.
Assay [2] addresses T2, Delta-type opioid receptor (Homo sapiens, UniProt P41143). The experiment in a line: HTS Image-Based Screen for Agonists of the DOR Receptor. [Related pubchem assays (depositor defined):AID1777, AID1786, AID2133]. The assay is classed as functional.
In assay [3] the target is G-protein coupled receptor 55 (Homo sapiens, UniProt Q9Y2T6). The experiment in a line: inhibition of LPI-stimulated GPR55 beta-arrestin translocation – imaging, U2OS, beta-arrestin-GFP, LPI agonist, primary screen (AID 2013).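 Further: antagonist potency measured as reduced agonist-driven arrestin aggregation.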 The assay is classed as functional.
The target of a further assay is Genome polyprotein (dengue virus type 2, UniProt P29990). The experiment in a line: flavivirus cap methylation enzyme inhibition – biochemical, confirmation dose response, primary screen (AID 588689). In kind it is functional.
Assay [4] has as its target T3, Beta-galactosidase (Escherichia coli, UniProt Q8VNN2). In kind it is functional.
A further assay relates to Vero. Briefly: viability of Vero cells under compound – cytotoxicity control for flavivirus capping enzyme inhibitors (AID 588742). The assay is classed as functional. Conditions: Chlorocebus sabaeus.
Another assay deals with CHO. Briefly: CHO cell viability loss, potency – luminescence, cytotoxicity control for TLR9-MyD88 binding inhibitor project, dose response (AID 588339).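 Further: CHO cells stably coexpressing TLR9 and MyD88 fusions from primary screen; compound exposure lasted 48 hours before viability readout.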 The assay is classed as functional, cell-based, hamster. Conditions: Cricetulus griseus.
Assay [5] has as its target T1, Kappa-type opioid receptor. The assay is classed as functional. The source holds these as a separate data set.
For assay [6], the target named is T2, Delta-type opioid receptor. The experiment in a line: HTS Image-Based Screen for Antagonists of the DOR Receptor. [Related pubchem assays (depositor defined):AID1777, AID1785, AID1786, AID2133]. In kind it is functional.
Assay [7] has as its target T4, Type-1 angiotensin II receptor (Homo sapiens, UniProt P30556).
T4 sequence (P30556 whole entry): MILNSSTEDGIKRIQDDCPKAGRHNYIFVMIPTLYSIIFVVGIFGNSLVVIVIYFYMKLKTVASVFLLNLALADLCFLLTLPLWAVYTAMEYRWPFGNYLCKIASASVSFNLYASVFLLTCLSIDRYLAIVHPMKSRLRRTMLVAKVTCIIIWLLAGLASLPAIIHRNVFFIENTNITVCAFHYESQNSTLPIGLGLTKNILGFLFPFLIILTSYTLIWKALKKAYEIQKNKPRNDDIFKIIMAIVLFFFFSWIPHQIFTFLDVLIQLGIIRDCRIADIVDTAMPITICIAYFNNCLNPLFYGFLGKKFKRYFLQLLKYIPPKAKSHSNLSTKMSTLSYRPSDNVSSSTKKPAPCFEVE
Briefly: antagonism of angiotensin II type 1 receptor – cell-based, uHTS hits, selectivity assay for APJ receptor antagonist project, dose response (AID 463214).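 Further: antagonist potency against angiotensin II stimulated AT1 response.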 The assay is classed as functional.

The target in a further assay is Mu-type opioid receptor (Homo sapiens, UniProt P35372). The experiment in a line: HTS Image-Based Screen for Agonists of the MOR Receptor. [Related pubchem assays (depositor defined):AID1777, AID1785, AID1786, AID2133]. In kind it is functional.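 Further: imaging of beta-arrestin GFP recruitment into spots after receptor activation.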
Assay [8] has as its target T3, Beta-galactosidase. The experiment in a line: PubChem AID 485352. The assay is classed as functional.
Assay [9] concerns the target Bifunctional protein GlmU (Mycobacterium tuberculosis, UniProt P9WMN3). Briefly: Inhibitors of Mycobacterial Glucosamine-1-phosphate acetyl transferase (GlmU). Secondary screen. The arrangement: species or system Mycobacterium tuberculosis H37Rv.
Assay [10] can be described thus: growth inhibition of PfATP4-mutant resistant parasites – NITD609-resistant line, SYBR Green, dry powder, dose response (AID 1159571).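 Further: parasites synchronized at ring stage by sorbitol before testing.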 In kind it is functional, cell-based.
Assay [11] can be described thus: Dd2 malaria parasite growth inhibition potency – SYBR Green, dry powder samples, dose response (AID 1159566).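 Further: potency for growth inhibition with lower SYBR green DNA signal.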 In kind it is functional, cell-based.
Assay [12] can be described thus: P. falciparum Dd2 growth inhibitors, dose response, SYBR Green, cherry-picked samples (AID 1159567). The assay is classed as functional, cell-based.
Assay [13] is described as follows: growth inhibition of yeast DHODH-expressing 3D7 parasites – SYBR Green, dry powder samples, dose response (AID 1159570).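 Further: parasite growth measured after 72 hours of compound exposure.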 In kind it is functional, cell-based.
The nature of assay [14]: toxicity to human HepG2 hepatoma cells – cell-based, plate reader, dry powder samples, cytotoxicity control, dose response (AID 1159569).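 Further: inhibitor potency with signal falling toward the positive control level.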 The assay is classed as functional.
Another assay concerns the target Protein Tat (Human immunodeficiency virus type 1 group M subtype B (isolate HXB2)(HIV-1), UniProt P04608). In kind it is functional.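 Further: tat binding to TAR RNA read out by fluorescence polarization.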
Assay [15] addresses RNA-editing ligase 1, mitochondrial (Trypanosoma brucei brucei, UniProt P86926). Briefly: inhibition of trypanosome RNA editing ligase – biochemical, fluorescence, Trypanosoma brucei, dose response (AID 1117295). In kind it is functional.

pIC50: −log10 of the molar value. Active and inactive are the calls of the source. Where only a bound is given, the exact number is not on record here.

Broadly, the AC50 is the concentration at which the activity in the assay is half-maximal. One may read the IC50 as the midpoint of a concentration-inhibition curve. One may read the pIC50 as −log10 of the IC50, conventionally taken in molar units. Read a low pIC50 as a high IC50. One may read the EC50 as the concentration giving half of the maximal effect. A word on the CC50: it is the concentration at which the toxic effect on the cells reaches its halfway point.

Turning to `Cc1c(Nc2cc(Cl)c3nonc3c2[N+](=O)[O-])c(=O)n(-c2ccccc2)n1C`, the AC50 at Paired box protein Pax-8 is 8.97 µM (active). Also, the half-maximal inhibitory concentration (IC50) is 6 µM (active) on Beta Lactamase; 3.48 µM (active) in [3]; 21.4 µM (active) at Genome polyprotein; 1.53 µM (active) in the assay on CHO; 4.14 µM (active) in assay [5]; > 32 µM (inactive) in assay [6]. In addition, the IC50 in assay [7] is 2.33 µM (active); in [9] it was 123 µM (active). The pIC50 in assay [1] was 4.52. The EC50 in assay [2] is > 32 µM (inactive); at Beta-galactosidase [4] it was > 31.5 µM (inactive); at Mu-type opioid receptor it was > 32 µM (inactive); on Beta-galactosidase [8], > 40 µM (inactive). The CC50 in the assay with Vero is 12.7 µM (active).

For the molecule `COc1ccc(C#Cc2ccc([C@@H]3[C@@H](CO)N4C(=O)CN(C(=O)c5ccccc5)C[C@H]34)cc2)cc1`, the AC50 in assay [10] is 1.35 µM (active); in assay [11], 1.63 µM (active); in assay [12], 2.48 µM (active); in assay [13], 1.99 µM (active); in assay [14], 33.4 µM (active).

`CC1CCCN(C(=O)CN2CCN(C(=O)c3ccco3)CC2)C1` (stereo not drawn): the IC50 at Protein Tat is > 100 µM (active).

For the molecule `COC(=O)C1=C(C)N(C)C(NCc2ccccc2C(F)(F)F)=NC1c1cccc(F)c1` (stereo not drawn), in assay [15], the IC50 is > 96.6 µM (inactive).

With `C#CCOCCOCCOCCNc1nc(N2CCN(C(=O)[C@H](CCCCN)n3cc([C@@H](N)C(C)CC)nn3)CC2)nc(N2CCN(C(=O)[C@H](CCCCN)n3cc([C@@H](N)C(C)CC)nn3)CC2)n1` (stereo partly drawn), in assay [15], the IC50 is > 96.6 µM (inactive).
